Laboratory results: BigSolDB 2.1

Structure (SMILES): O=C1C2C3C=CC(C3)C2C(=O)N1O (stereo not drawn)
- solubility (mole fraction) (in 1,4-dioxane, 288.15 K): 0.0796
- solubility (mole fraction) (in 1,4-dioxane, 293.15 K): 0.0879
- solubility (mole fraction) (in 1,4-dioxane, 298.15 K): 0.0963
- solubility (mole fraction) (in 1,4-dioxane, 303.15 K): 0.107
- solubility (mole fraction) (in 1,4-dioxane, 308.15 K): 0.115
- solubility (mole fraction) (in 1,4-dioxane, 313.15 K): 0.128
- solubility (mole fraction) (in 1,4-dioxane, 318.15 K): 0.138
- solubility (mole fraction) (in 1,4-dioxane, 323.15 K): 0.153
- solubility (mole fraction) (in 2-butoxyethanol, 278.15 K): 0.035
- solubility (mole fraction) (in 2-butoxyethanol, 283.15 K): 0.0408
- solubility (mole fraction) (in 2-butoxyethanol, 288.15 K): 0.0458
- solubility (mole fraction) (in 2-butoxyethanol, 293.15 K): 0.0536
- solubility (mole fraction) (in 2-butoxyethanol, 298.15 K): 0.0601
- solubility (mole fraction) (in 2-butoxyethanol, 303.15 K): 0.068
- solubility (mole fraction) (in 2-butoxyethanol, 308.15 K): 0.077
- solubility (mole fraction) (in 2-butoxyethanol, 313.15 K): 0.087
- solubility (mole fraction) (in 2-butoxyethanol, 318.15 K): 0.0989
- solubility (mole fraction) (in 2-butoxyethanol, 323.15 K): 0.11
- solubility (mole fraction) (in 2-ethoxyethanol, 278.15 K): 0.0699
- solubility (mole fraction) (in 2-ethoxyethanol, 283.15 K): 0.0774
- solubility (mole fraction) (in 2-ethoxyethanol, 288.15 K): 0.0856
- solubility (mole fraction) (in 2-ethoxyethanol, 293.15 K): 0.093
- solubility (mole fraction) (in 2-ethoxyethanol, 298.15 K): 0.101
- solubility (mole fraction) (in 2-ethoxyethanol, 303.15 K): 0.112
- solubility (mole fraction) (in 2-ethoxyethanol, 308.15 K): 0.121
- solubility (mole fraction) (in 2-ethoxyethanol, 313.15 K): 0.132
- solubility (mole fraction) (in 2-ethoxyethanol, 318.15 K): 0.144
- solubility (mole fraction) (in 2-ethoxyethanol, 323.15 K): 0.158
- solubility (mole fraction) (in 2-methoxyethanol, 278.15 K): 0.106
- solubility (mole fraction) (in 2-methoxyethanol, 283.15 K): 0.115
- solubility (mole fraction) (in 2-methoxyethanol, 288.15 K): 0.122
- solubility (mole fraction) (in 2-methoxyethanol, 293.15 K): 0.131
- solubility (mole fraction) (in 2-methoxyethanol, 298.15 K): 0.141
- solubility (mole fraction) (in 2-methoxyethanol, 303.15 K): 0.154
- solubility (mole fraction) (in 2-methoxyethanol, 308.15 K): 0.164
- solubility (mole fraction) (in 2-methoxyethanol, 313.15 K): 0.179
- solubility (mole fraction) (in 2-methoxyethanol, 318.15 K): 0.188
- solubility (mole fraction) (in 2-methoxyethanol, 323.15 K): 0.205
- solubility (mole fraction) (in 2-propoxyethanol, 278.15 K): 0.0446
- solubility (mole fraction) (in 2-propoxyethanol, 283.15 K): 0.0502
- solubility (mole fraction) (in 2-propoxyethanol, 288.15 K): 0.0566
- solubility (mole fraction) (in 2-propoxyethanol, 293.15 K): 0.0645
- solubility (mole fraction) (in 2-propoxyethanol, 298.15 K): 0.0718
- solubility (mole fraction) (in 2-propoxyethanol, 303.15 K): 0.0804
- solubility (mole fraction) (in 2-propoxyethanol, 308.15 K): 0.0896
- solubility (mole fraction) (in 2-propoxyethanol, 313.15 K): 0.0998
- solubility (mole fraction) (in 2-propoxyethanol, 318.15 K): 0.112
- solubility (mole fraction) (in 2-propoxyethanol, 323.15 K): 0.123
- solubility (mole fraction) (in acetone, 278.15 K): 0.0266
- solubility (mole fraction) (in acetone, 283.15 K): 0.0317
- solubility (mole fraction) (in acetone, 288.15 K): 0.0374
- solubility (mole fraction) (in acetone, 293.15 K): 0.0447
- solubility (mole fraction) (in acetone, 298.15 K): 0.052
- solubility (mole fraction) (in acetone, 303.15 K): 0.0606
- solubility (mole fraction) (in acetone, 308.15 K): 0.0706
- solubility (mole fraction) (in acetone, 313.15 K): 0.0817
- solubility (mole fraction) (in acetone, 318.15 K): 0.0938
- solubility (mole fraction) (in acetone, 323.15 K): 0.108
- solubility (mole fraction) (in acetonitrile, 278.15 K): 0.0165
- solubility (mole fraction) (in acetonitrile, 283.15 K): 0.0201
- solubility (mole fraction) (in acetonitrile, 288.15 K): 0.0223
- solubility (mole fraction) (in acetonitrile, 293.15 K): 0.0258
- solubility (mole fraction) (in acetonitrile, 298.15 K): 0.0298
- solubility (mole fraction) (in acetonitrile, 303.15 K): 0.034
- solubility (mole fraction) (in acetonitrile, 308.15 K): 0.0387
- solubility (mole fraction) (in acetonitrile, 313.15 K): 0.0443
- solubility (mole fraction) (in acetonitrile, 318.15 K): 0.0505
- solubility (mole fraction) (in acetonitrile, 323.15 K): 0.0587
- solubility (mole fraction) (in ethanol, 278.15 K): 0.0303
- solubility (mole fraction) (in ethanol, 283.15 K): 0.0352
- solubility (mole fraction) (in ethanol, 288.15 K): 0.042
- solubility (mole fraction) (in ethanol, 293.15 K): 0.051
- solubility (mole fraction) (in ethanol, 298.15 K): 0.0592
- solubility (mole fraction) (in ethanol, 303.15 K): 0.0703
- solubility (mole fraction) (in ethanol, 308.15 K): 0.082
- solubility (mole fraction) (in ethanol, 313.15 K): 0.0969
- solubility (mole fraction) (in ethanol, 318.15 K): 0.112
- solubility (mole fraction) (in ethanol, 323.15 K): 0.131
- solubility (mole fraction) (in ethyl acetate, 278.15 K): 0.00721
- solubility (mole fraction) (in ethyl acetate, 283.15 K): 0.00912
- solubility (mole fraction) (in ethyl acetate, 288.15 K): 0.0112
- solubility (mole fraction) (in ethyl acetate, 293.15 K): 0.0134
- solubility (mole fraction) (in ethyl acetate, 298.15 K): 0.0156
- solubility (mole fraction) (in ethyl acetate, 303.15 K): 0.0192
- solubility (mole fraction) (in ethyl acetate, 308.15 K): 0.0229
- solubility (mole fraction) (in ethyl acetate, 313.15 K): 0.0271
- solubility (mole fraction) (in ethyl acetate, 318.15 K): 0.0323
- solubility (mole fraction) (in ethyl acetate, 323.15 K): 0.0373
- solubility (mole fraction) (in isopropanol, 278.15 K): 0.0197
- solubility (mole fraction) (in isopropanol, 283.15 K): 0.0238
- solubility (mole fraction) (in isopropanol, 288.15 K): 0.0287
- solubility (mole fraction) (in isopropanol, 293.15 K): 0.0338
- solubility (mole fraction) (in isopropanol, 298.15 K): 0.0403
- solubility (mole fraction) (in isopropanol, 303.15 K): 0.0495
- solubility (mole fraction) (in isopropanol, 308.15 K): 0.0577
- solubility (mole fraction) (in isopropanol, 313.15 K): 0.0672
- solubility (mole fraction) (in isopropanol, 318.15 K): 0.0774
- solubility (mole fraction) (in isopropanol, 323.15 K): 0.089
- solubility (mole fraction) (in methanol, 278.15 K): 0.0706
- solubility (mole fraction) (in methanol, 283.15 K): 0.0796
- solubility (mole fraction) (in methanol, 288.15 K): 0.0896
- solubility (mole fraction) (in methanol, 293.15 K): 0.102
- solubility (mole fraction) (in methanol, 298.15 K): 0.111
- solubility (mole fraction) (in methanol, 303.15 K): 0.128
- solubility (mole fraction) (in methanol, 308.15 K): 0.138
- solubility (mole fraction) (in methanol, 313.15 K): 0.151
- solubility (mole fraction) (in methanol, 318.15 K): 0.167
- solubility (mole fraction) (in methanol, 323.15 K): 0.181
- solubility (mole fraction) (in n-propanol, 278.15 K): 0.0192
- solubility (mole fraction) (in n-propanol, 283.15 K): 0.0231
- solubility (mole fraction) (in n-propanol, 288.15 K): 0.0274
- solubility (mole fraction) (in n-propanol, 293.15 K): 0.034
- solubility (mole fraction) (in n-propanol, 298.15 K): 0.0401
- solubility (mole fraction) (in n-propanol, 303.15 K): 0.0488
- solubility (mole fraction) (in n-propanol, 308.15 K): 0.0572
- solubility (mole fraction) (in n-propanol, 313.15 K): 0.0651
- solubility (mole fraction) (in n-propanol, 318.15 K): 0.0744
- solubility (mole fraction) (in n-propanol, 323.15 K): 0.0885
